# Experimental data as given in ChEMBL document CHEMBL1201862, “PubChem BioAssay data set” (2004).
# Calls of active or inactive are those of the source.
# Experiments:
# [1] = target: Prothrombin (Homo sapiens, UniProt P00734); experiment: Thrombin 1536 HTS Dose Response Confirmation. [Related pubchem assays: 1046 (Thrombin 1536 HTS; hits were confirmed in this assay)]; assay type: functional
# [2] = target: T1, Dual specificity protein phosphatase 6 (Rattus norvegicus, UniProt Q64346); experiment: inhibition of rat DUSP6 enzyme activity – biochemical, in vitro, primary screen (AID 425)
# T1 sequence (Q64346 whole entry): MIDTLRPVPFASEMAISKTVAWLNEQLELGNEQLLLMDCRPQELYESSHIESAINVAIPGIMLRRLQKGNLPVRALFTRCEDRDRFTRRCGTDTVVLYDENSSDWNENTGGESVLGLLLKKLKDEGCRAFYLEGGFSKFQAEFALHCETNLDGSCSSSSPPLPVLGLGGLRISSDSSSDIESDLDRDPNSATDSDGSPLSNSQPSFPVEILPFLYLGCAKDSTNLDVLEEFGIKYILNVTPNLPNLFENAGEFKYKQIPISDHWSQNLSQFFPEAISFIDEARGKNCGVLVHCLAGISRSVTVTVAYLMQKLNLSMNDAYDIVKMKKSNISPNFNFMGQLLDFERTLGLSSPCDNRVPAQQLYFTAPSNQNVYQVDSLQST
# [3] = target: Paired box protein Pax-8 (Homo sapiens, UniProt Q06710); experiment: PAX8 transcriptional activity inhibition in RMG-I – RMG-I cells, luciferase, cherry-pick, dose response (AID 687027); assay type: functional, cell-based;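 note: luciferase reporter driven by Pax8 target thyroperoxidase promoter measured by SteadyGlo luminescence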
# [4] = OVCAR-3 cell viability loss – plate reader, dry powder samples, PAX8 inhibitor project, dose response (AID 743044); assay type: functional, cell-based
# [5] = OVCAR8 cell viability loss – plate reader, dry powder samples, PAX8 project, dose response (AID 743197); assay type: functional, cell-based; settings: OVCAR-8
# [6] = growth inhibition of yeast DHODH-expressing 3D7 parasites – SYBR Green, dry powder samples, dose response (AID 1159570); assay type: functional, cell-based;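 note: parasite growth measured after 72 hours of compound exposure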
# [7] = P. falciparum Dd2 growth inhibitors, dose response, SYBR Green, cherry-picked samples (AID 1159567); assay type: functional, cell-based
# [8] = Dd2 malaria parasite growth inhibition potency – SYBR Green, dry powder samples, dose response (AID 1159566); assay type: functional, cell-based;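 note: potency for growth inhibition with lower SYBR green DNA signal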
# [9] = growth inhibition of PfATP4-mutant resistant parasites – NITD609-resistant line, SYBR Green, dry powder, dose response (AID 1159571); assay type: functional, cell-based;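 note: parasites synchronized at ring stage by sorbitol before testing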
# [10] = target: T2, Leucine aminopeptidase (Plasmodium falciparum 3D7, UniProt Q8IL11); experiment: P. falciparum M17LAP inhibitors, primary screen, biochemical, fluorogenic H-Leu-NHMec substrate, 1536-well (AID 1619); assay type: functional
# T2 sequence (Q8IL11 whole entry): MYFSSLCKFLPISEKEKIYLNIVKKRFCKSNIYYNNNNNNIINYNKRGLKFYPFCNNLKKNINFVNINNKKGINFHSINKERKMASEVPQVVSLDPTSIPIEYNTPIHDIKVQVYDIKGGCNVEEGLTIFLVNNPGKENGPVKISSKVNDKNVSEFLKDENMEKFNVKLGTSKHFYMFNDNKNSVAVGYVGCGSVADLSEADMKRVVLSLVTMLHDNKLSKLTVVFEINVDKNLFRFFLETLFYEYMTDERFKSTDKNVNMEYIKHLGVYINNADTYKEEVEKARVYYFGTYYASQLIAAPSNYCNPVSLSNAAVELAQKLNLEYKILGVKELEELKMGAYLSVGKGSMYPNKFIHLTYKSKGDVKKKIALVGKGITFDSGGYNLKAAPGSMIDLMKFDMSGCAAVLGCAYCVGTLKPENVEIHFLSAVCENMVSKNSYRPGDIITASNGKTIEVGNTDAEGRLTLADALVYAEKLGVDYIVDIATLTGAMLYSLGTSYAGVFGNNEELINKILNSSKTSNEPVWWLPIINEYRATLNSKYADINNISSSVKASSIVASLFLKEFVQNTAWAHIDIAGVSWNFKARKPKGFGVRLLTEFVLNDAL
# [11] = target: T3, Aminopeptidase N (Plasmodium falciparum FcB1/Columbia, UniProt O96935); experiment: malaria alanyl aminopeptidase activity blockers – biochemical, fluorogenic H-Leu-NHMec substrate, 1536-well (AID 1445); set-up: species or system Plasmodium falciparum 3D7, 3D7
# T3 sequence (O96935 whole entry): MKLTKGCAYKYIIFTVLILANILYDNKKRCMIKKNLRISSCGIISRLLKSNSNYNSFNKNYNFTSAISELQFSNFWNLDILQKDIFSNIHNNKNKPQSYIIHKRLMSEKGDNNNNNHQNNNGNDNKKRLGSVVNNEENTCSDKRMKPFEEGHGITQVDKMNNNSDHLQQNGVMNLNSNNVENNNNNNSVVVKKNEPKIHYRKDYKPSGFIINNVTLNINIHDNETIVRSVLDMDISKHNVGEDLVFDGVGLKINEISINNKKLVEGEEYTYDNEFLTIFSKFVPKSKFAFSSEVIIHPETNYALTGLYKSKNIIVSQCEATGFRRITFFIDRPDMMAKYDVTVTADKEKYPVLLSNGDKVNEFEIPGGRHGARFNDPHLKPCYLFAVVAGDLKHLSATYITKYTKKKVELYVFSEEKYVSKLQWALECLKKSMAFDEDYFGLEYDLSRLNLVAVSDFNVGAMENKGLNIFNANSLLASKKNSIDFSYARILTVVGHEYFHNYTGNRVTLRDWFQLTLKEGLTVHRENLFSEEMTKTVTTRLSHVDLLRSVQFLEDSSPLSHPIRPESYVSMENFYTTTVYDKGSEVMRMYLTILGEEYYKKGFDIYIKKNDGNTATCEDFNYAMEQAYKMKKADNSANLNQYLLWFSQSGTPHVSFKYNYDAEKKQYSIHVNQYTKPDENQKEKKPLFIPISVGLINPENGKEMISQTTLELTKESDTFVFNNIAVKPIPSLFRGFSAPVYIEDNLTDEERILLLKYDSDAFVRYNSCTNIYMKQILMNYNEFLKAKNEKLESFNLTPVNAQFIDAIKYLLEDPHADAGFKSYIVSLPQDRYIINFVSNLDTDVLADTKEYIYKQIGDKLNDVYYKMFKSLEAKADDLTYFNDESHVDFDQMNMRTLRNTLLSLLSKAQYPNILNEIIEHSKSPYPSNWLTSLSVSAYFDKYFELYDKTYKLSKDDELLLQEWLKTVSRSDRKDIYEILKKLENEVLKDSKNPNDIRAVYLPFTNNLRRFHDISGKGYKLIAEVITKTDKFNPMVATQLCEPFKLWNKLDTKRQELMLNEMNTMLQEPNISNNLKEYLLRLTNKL
# [12] = target: T4, Histone-lysine N-methyltransferase NSD2 (Homo sapiens, UniProt O96028); assay type: biochemical
# T4 sequence (O96028 whole entry): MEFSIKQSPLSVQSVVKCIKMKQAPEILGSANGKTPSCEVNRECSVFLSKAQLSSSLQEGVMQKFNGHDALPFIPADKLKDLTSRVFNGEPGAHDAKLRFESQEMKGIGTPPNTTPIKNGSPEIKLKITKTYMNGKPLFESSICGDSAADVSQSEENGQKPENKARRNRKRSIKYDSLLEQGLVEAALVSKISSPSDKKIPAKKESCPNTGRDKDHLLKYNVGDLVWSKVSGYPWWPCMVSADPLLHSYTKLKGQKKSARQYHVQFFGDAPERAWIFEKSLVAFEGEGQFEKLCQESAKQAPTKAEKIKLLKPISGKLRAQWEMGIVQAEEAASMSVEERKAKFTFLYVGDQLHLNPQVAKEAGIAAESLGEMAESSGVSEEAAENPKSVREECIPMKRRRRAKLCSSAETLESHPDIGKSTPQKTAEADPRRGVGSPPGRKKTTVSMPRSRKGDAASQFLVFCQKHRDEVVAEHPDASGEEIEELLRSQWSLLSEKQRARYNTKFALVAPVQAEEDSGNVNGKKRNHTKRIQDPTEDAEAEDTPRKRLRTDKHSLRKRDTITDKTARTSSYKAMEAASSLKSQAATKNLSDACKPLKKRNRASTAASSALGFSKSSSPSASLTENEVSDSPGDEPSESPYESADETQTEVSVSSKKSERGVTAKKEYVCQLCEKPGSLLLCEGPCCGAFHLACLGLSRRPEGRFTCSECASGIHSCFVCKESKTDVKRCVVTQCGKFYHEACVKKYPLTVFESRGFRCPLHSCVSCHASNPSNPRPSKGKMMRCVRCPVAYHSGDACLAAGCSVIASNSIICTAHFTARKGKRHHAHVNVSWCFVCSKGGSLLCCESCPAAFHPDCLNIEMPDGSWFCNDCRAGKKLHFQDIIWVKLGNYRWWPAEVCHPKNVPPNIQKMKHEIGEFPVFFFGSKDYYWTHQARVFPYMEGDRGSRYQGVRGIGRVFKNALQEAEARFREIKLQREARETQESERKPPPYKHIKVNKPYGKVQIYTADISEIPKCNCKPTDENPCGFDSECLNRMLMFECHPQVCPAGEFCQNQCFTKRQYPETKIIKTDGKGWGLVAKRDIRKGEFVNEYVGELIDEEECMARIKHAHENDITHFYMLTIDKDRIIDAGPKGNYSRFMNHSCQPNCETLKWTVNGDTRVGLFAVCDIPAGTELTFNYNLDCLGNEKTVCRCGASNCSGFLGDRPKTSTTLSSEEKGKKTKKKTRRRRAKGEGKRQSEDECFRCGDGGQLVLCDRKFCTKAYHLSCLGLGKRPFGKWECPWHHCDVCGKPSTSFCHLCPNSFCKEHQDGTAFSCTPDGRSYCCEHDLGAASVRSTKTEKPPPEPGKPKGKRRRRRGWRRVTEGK
# [13] = tested on: Streptococcus sp. 'group A'; experiment: Streptococcus pyogenes SK(-)GAS viability under kanamycin – luminescence, BacTiterGlo, confirmation, counter-screen for streptokinase expression inhibitor project, dose response (AID 1900); assay type: functional, organism-based
# [14] = tested on: Streptococcus; experiment: GAS UMAA2166 growth inhibition – luminescence, BacTiterGlo, counter-screen for streptokinase expression inhibitor project, dose response (AID 1915); assay type: functional, organism-based;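 note: potency for reduction of bacterial viability or growth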
# [15] = tested on: INS1; experiment: INS-1E survival protection against cytokine death – cell-based, luminescence, retest, dose response (AID 449756); assay type: functional; settings: Rattus norvegicus;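 note: cell death triggered by IL-1 beta plus TNF-alpha plus IFN-gamma mixture; protective hits raise ATP signal compared with cytokine alone wells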
# [16] = target: T5, Coagulation factor XII (Homo sapiens, UniProt P00748); assay type: functional;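 note: activated factor XIIa alpha cleaving a fluorogenic AMC peptide substrate; inhibitor potency from loss of enzyme activity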
# T5 sequence (P00748 whole entry): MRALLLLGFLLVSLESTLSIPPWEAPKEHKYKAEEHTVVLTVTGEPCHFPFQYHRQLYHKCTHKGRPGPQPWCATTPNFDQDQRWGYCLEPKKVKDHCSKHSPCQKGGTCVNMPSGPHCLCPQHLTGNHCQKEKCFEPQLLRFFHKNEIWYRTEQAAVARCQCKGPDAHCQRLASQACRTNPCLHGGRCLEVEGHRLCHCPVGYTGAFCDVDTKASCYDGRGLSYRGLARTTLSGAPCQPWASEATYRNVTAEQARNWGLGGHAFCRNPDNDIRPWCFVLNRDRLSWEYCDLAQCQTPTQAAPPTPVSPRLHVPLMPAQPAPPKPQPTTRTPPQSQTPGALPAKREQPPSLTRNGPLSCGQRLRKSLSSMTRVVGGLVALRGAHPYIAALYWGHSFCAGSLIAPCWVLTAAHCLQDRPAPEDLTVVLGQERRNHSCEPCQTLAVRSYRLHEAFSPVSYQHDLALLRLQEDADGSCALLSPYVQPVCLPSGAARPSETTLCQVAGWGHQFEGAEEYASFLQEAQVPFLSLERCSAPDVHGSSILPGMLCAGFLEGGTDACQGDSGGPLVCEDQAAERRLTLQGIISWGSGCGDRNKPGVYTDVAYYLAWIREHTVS
# Chain of Paired box protein Pax-8 (Q06710 whole entry): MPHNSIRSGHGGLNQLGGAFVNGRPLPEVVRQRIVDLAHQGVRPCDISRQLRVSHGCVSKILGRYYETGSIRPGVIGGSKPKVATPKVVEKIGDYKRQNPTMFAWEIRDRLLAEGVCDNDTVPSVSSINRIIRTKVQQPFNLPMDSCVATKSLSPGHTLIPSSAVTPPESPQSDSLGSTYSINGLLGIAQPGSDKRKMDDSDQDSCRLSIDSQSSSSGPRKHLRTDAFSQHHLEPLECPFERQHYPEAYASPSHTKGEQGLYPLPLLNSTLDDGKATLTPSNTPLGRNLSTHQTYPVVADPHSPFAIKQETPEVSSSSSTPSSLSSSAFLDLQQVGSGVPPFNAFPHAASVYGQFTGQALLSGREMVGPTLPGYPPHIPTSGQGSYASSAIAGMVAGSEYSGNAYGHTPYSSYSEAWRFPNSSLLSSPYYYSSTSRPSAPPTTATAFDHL
smiles,measurement,setting,value
N#Cc1sc2nc(-c3ccccc3)cc(C(F)(F)F)c2c1N,IC50,[1],> 50 µM (not active)
O=C(c1ccc(-c2ccccc2)cc1)N1CCN(Cc2ccccn2)CC1,IC50,[2],> 100 µM (not active)
COC(=O)c1ccccc1NC(=O)Nc1cc(C)cc(C)n1,IC50,[2],> 100 µM (not active)
Cc1ccc(S(=O)(=O)N(C)C[C@H]2Oc3cc(C#Cc4ccncc4)ccc3S(=O)(=O)N([C@@H](C)CO)C[C@@H]2C)cc1,AC50,[3],2.52 µM (active)
same,AC50,[4],49.1 µM (active)
same,AC50,[5],> 70 µM (inactive)
same,AC50,[6],1.37 µM (active)
same,AC50,[7],1.68 µM (active)
same,AC50,[8],1.41 µM (active)
same,AC50,[9],1.64 µM (active)
Cc1ccc(C)c(N2C(=N)S/C(=C\c3ccc(-c4ccccc4C(=O)O)o3)C2=O)c1,IC50,[10],32.6 µM (active)
same,IC50,[11],10.4 µM (active)
same,AC50,[12],10.4 µM (active)
COc1ccc(NC(=O)N2CCCCN3[C@@H](CO)[C@H](c4ccc(C#Cc5ccccn5)cc4)[C@@H]3C2)cc1,AC50,[6],0.116 µM (active)
same,AC50,[7],< 0.3 µM (active)
same,AC50,[8],0.155 µM (active)
same,AC50,[9],0.132 µM (active)
Cn1c(SCC(=O)NC2CCCC2)nnc1-c1ccc(S(=O)(=O)N2CCOCC2)cc1,IC50,[1],> 50 µM (not active)
O=C(N/N=C/c1cccc(F)c1)c1c(O)nc2ccccc2c1O,EC50,[13],2.87 µM (active)
same,IC50,[1],> 50 µM (not active)
same,EC50,[14],3.03 µM (active)
same,AC50,[15],3.63 µM (active)
C=CCNCCCCOc1ccccc1,AC50,[12],> 20 µM (inactive)
CCN(CC)CCCNc1ncnc2scc(-c3ccc(F)cc3)c12,AC50,[12],> 20 µM (inactive)
O=C(N/N=C/c1ccc(OCc2cnc(Cl)s2)cc1)c1ccncc1,IC50,[1],> 50 µM (not active)
same,IC50,[16],> 50 µM (inactive)
Cc1noc(C)c1S(=O)(=O)Nc1ccc2c(c1)C(=O)N([C@@H](C)CO)C[C@H](C)[C@@H](CN(C)C(=O)Nc1ccc(C(F)(F)F)cc1)OCCCC[C@H](C)O2,AC50,[3],4.92 µM (active)
same,AC50,[4],30.9 µM (active)
same,AC50,[5],> 70 µM (inactive)
